Reference: publication PMC13489962, “Small-molecule modulation of β-arrestins” (Nature, 2026)

Key:
βARR1 L129G = molecular target: T1, βARR1 L129G (Rattus norvegicus, UniProt P29066, L129G); experiment: ITC binding to βARR1 mutant L129G; conditions: 25 °C
T1 construct: βARR1 or βARR2 construct, with their C terminus truncated (at amino acid 393 or 394, respectively); GST (pGEX4T1) (N, cleaved yes); made in house; host or cells: E. coli BL21 (DE3) pLysS
Protocol: (§1) The expression and purification of β-arrestins have been described previously[44],[62]–[64]. In brief, E. coli BL21 (DE3) pLysS cells (New England Biolabs: C2527I) carrying pGEX4T1-Rattus norvegicus βARR1 or βARR2 construct, with their C terminus truncated (at amino acid 393 or 394, respectively), were cultured in Terrific Broth (Teknova) medium at 37 °C. After OD600 reached 0.6–0.8, the cells were induced with 0.1 mM isopropyl-β-D-thiogalactopyranoside (IPTG) at 18 °C overnight. Bacteria were collected by centrifugation (4,000 rpm), and cell pellets were resuspended in lysis buffer (20 mM HEPES, pH 8, 150 mM NaCl, 10% glycerol, 1 mM EDTA, 0.2 mM dithiothreitol (DTT), 1 mM phenylmethylsulfonyl fluoride, and 1 mM benzamidine) at 4 °C for 1 h. […] Eluted fractions were analysed by SDS–PAGE, pooled, concentrated using 30 kDa MWCO Amicon Ultra-15 Centrifugal Filter devices, flash-frozen in liquid nitrogen, and stored in aliquots at −80 °C. […] Protein concentrations for each protein were determined by ultraviolet absorption at 280 nm and extinction coefficients estimated using the ExPASy ProtParam tool[67].
(§2) ITC measurements were performed on a MicroCal iTC200 system at 25 °C. […] Protein concentrations were determined by spectrophotometry at 280 nm, using extinction coefficients calculated from each protein sequence via the ProtParam program. […]

βARR1 C251A = molecular target: T2, βARR1 C251A (Rattus norvegicus, UniProt P29066, C251A); experiment: ITC binding to βARR1 mutant C251A
T2 construct: βARR1 or βARR2 construct, with their C terminus truncated (at amino acid 393 or 394, respectively); GST (pGEX4T1) (N, cleaved yes); made in house; host or cells: E. coli BL21 (DE3) pLysS
Protocol: as §1, §2

βARR1 R285A = molecular target: T3, βARR1 R285A (Rattus norvegicus, UniProt P29066, R285A); experiment: ITC binding to βARR1 mutant R285A
T3 construct: βARR1 or βARR2 construct, with their C terminus truncated (at amino acid 393 or 394, respectively); GST (pGEX4T1) (N, cleaved yes); made in house; host or cells: E. coli BL21 (DE3) pLysS
Protocol: as §1, §2

[1] = system: βARR2 recruitment to β2V2R; experiment: PathHunter βARR2 recruitment to β2V2R in U2OS cells; format: cell-based; conditions: 50 μM (recruitment), 25 μM (internalization); n = 1–2; Reviewer Fig. R2
Protocol: β-Arrestin recruitment to the agonist-activated receptor (β2V2R) was measured using the DiscoveRx PathHunter β-arrestin assay, which uses enzyme fragment complementation. […] Upon agonist-induced recruitment of βARR2 to β2V2R, the β-gal fragments complement to form a functional enzyme, generating a measurable chemiluminescent signal. The signal intensity correlates directly with the extent of βARR2 recruitment. U2OS cells co-expressing β2V2R and βARR2 were plated at a density of 25,000 cells per well in white, clear-bottom 96-well plates 24 h before treatment. On the day of the experiment, cells were treated with either a single dose (50 μM) or varying concentrations of a specific β-arrestin modulator or vehicle control in Hanks’ balanced salt solution (HBSS) (Sigma-Aldrich) with 20 mM HEPES (pH 7.4) and 0.05% BSA. Cells were incubated at 37 °C, 5% CO2, and about 100% relative humidity for about 30 min, followed by stimulation with either 10 nM Iso or a serial dilution of Iso for 60 min at 37 °C. After agonist stimulation, PathHunter reagents were added, and cells were incubated for another 60 min at ambient temperature. Luminescence signals were measured using a CLARIOstar microplate reader (BMG Labtech).

βARR1 K138A = molecular target: T4, βARR1 K138A (Rattus norvegicus, UniProt P29066, K138A); experiment: ITC binding to βARR1 mutant K138A; conditions: 25 °C
T4 construct: βARR1 or βARR2 construct, with their C terminus truncated (at amino acid 393 or 394, respectively); GST (pGEX4T1) (N, cleaved yes); made in house; host or cells: E. coli BL21 (DE3) pLysS
Protocol: as §1, §2

β-arrestin = experiment: Functional assays (not specified); conditions: peer review reply

T3 sequence (P29066 1-393 R285A): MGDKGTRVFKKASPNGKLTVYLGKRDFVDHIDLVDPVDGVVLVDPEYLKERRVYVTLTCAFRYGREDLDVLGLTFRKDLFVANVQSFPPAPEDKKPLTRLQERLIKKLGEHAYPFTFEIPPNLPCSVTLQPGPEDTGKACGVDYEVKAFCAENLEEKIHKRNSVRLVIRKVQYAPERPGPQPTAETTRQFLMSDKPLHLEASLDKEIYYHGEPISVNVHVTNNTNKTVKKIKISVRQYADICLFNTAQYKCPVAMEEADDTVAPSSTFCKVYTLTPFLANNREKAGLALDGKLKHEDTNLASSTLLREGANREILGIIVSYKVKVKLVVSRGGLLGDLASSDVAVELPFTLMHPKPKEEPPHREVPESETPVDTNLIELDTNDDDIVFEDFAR
T2 sequence (P29066 1-393 C251A): as the sequence (P29066 1-393 R285A) above, with C251A, A285R counted along it
T1 sequence (P29066 1-393 L129G): as the sequence (P29066 1-393 R285A) above, with L129G, A285R counted along it
T4 sequence (P29066 1-393 K138A): as the sequence (P29066 1-393 R285A) above, with K138A, A285R counted along it

SMILES: C=C1C(=O)[C@]23[C@H](O)[C@H]1CC[C@H]2[C@@]12CO[C@]3(O)[C@@H](O)[C@@H]1C(C)(C)CC[C@@H]2O [Cmpd-5, (1S,4aR,5S,6S,6aR,9S,11aS,11bS,14R)-1,5,6,14-tetrahydroxy−4,4-dimethyl-8-methylenedecahydro-1H-6,11b-(epoxymethano)-6a,9-methanocyclohepta[a]naphthalen-7(8H)-one]
- Kd (βARR1 L129G): 2000 ± 700 nM
- Kd fold over WT, βARR1 C251A (βARR1 C251A): 8.3 fold
- Kd (βARR1 C251A; 25 °C): 3000 ± 1000 nM
- Kd fold over WT, βARR1 R285A (βARR1 R285A): 46.5 fold
- ΔH, βARR1 R285A (βARR1 R285A; 25 °C): -1.5 kcal/mol
- inhibition across a full Iso dose range, βarr2 recruitment and receptor internalization [1]: robust
- Kd (βARR1 K138A): 1000 ± 300 nM
- binding affinity from functional assays (β-arrestin): 2 to 10 µM
